Consider four compounds from US8912163B2, “Compositions for the treatment or prophylaxis of viral infections” (Katholieke Universiteit Leuven, priority 2007, dated 2014).

The term CC50 denotes the concentration giving 50% cytotoxicity. As usually defined, the solubility is the concentration that dissolves in the medium under given conditions.

In brackets after ≈: the same amount, converted by molar mass. Like-named read-outs stand apart in the source and are kept apart here. Some results are limits rather than exact numbers.

One data set deals with VZV. Briefly: Anti-VZV activity in VZV-infected HEL cell cultures (general statements). In kind it is cell-based, Varicella Zoster virus. The note with it: HEL cells. The method, then: The objective of this study was to compare the antiviral activity of Compounds 1, 3, 5, 7 and 9 in HEL cells inoculated with VZV strains. Antiviral activity was assessed as the ability of Compounds 1, 3, 5, 7 and 9 to reduce viral plaque formation after incubation periods of 5 days as compared to untreated control cultures.
(§1) VZV-drug susceptibility assays were performed on confluent HEL cells in 96-well microtiter plates. Monolayers were infected with 20 PFU of cell-associated virus per well. For each assay, virus controls (infected-untreated cells) were included. After a 2-hour incubation period, the virus inoculum was removed and the media replaced by the different dilutions (in duplicate) of the tested molecules. Serial dilutions of test compounds were incubated with the infected monolayers for 5 days. After the 5-day incubation period, the cells were fixed and stained with Giemsa, and the level of virus-induced cytopathic effect was determined by counting the number of plaques for each dilution.

The next data set deals with VZV TK+ YS. Briefly: VZV plaque reduction in HEL cells, TK+ strain YS. In kind it is cell-based, Varicella Zoster virus. The conditions noted are these: 5 days. The method, then: as §1
The next data set deals with VZV TK+ OKA. Briefly: VZV plaque reduction in HEL cells, TK+ strain OKA. The format is cell-based, Varicella Zoster virus. The method, then:
as §1

The next data set deals with VZV TK− 07/1. Briefly: VZV plaque reduction in HEL cells, TK- strain 07/1. In kind it is cell-based, Varicella Zoster virus. The method, then: as §1
Another data set relates to HEL cells. Briefly: in vitro. The format is cell-based.
The next data set can be described thus: in vitro. The conditions noted are these: human. The format is cell-based.
The next data set can be described thus: Water-solubility by HPLC. In kind it is physicochemical. The note with it: deionised water, room temperature. The method, then:
HPLC was carried out on a Waters 484 System using Novapack C18 reverse phase column. Flow rate: 1 mL/min. Detection: UV 254 nm. […] The samples were centrifuged at 14.000 rpm in an Eppendorf micro-centrifuge for 1.5 min at room temperature. An aliquot of the clear supernatant was removed and diluted to a concentration within the range of a five-point standard curve. Water-solubility was calculated from each peak area of the above solution by HPLC compared with the sample dissolved in acetonitrile, the concentration of which is already known.

A short description of data set [1]: Oral bioavailability in mice: Compound 1 in plasma after single oral gavage. In kind it is in vivo. The conditions noted are these: for Compound 1 in plasma (area under the curve (HPLC)): dose equivalent to 25 mg/kg of Compound 1, relative peak area. The text has this: The results of this study are shown in Table 1 below and in FIG. 1 of the accompanying drawings.

The target in the next data set is purified CD26 (Homo sapiens, UniProt P27487). Briefly: Conversion (substrate activity) by purified CD26. The format is biochemical. The note with it: purified CD26 (1.5 mU in PBS), 37° C. The method, then: A variety of test compounds have been evaluated for their substrate activity against purified CD26, human serum (HS), and bovine serum (BS) in Eppendorf tubes. The 400 μL reaction mixture contained 50 μM of test compound in PBS (containing 0.1% DMSO). The reaction was started by the addition of purified CD26 (1.5 mU) or 20% of HS (in PBS) or BS (in PBS) at 37° C. At different time points, 100 μL was withdrawn from the reaction mixture, added to 200 μL methanol, and put on ice for ˜10 min. Then, the mixture was centrifuged at 13,000 rpm for 5 min at 4° C. and 250 μL of supernatant was analyzed by HPLC on a reverse phase RP-8 column, using following gradients: […]
(§2) Gradient A (Buffer A: 50 mM NaH2PO4+5 mM heptane-sulfonic acid pH 3.2; buffer B: acetonitrile): 2 min 98% A+2% B; 6 min linear gradient to 80% A+20% B; 2 min linear gradient to 75% A+25% B; 2 min linear gradient to 65% A+35% B; 18 min linear gradient to 50% A+50% B; 5 min 50% A+50% B; 5 min linear gradient to 98% A+2% B; 5 min equilibration at 98% A+2% B.
(§3) Gradient B: 2 min 98% A+2% B; 6 min linear gradient to 80% A+20% B; 2 min linear gradient to 75% A+25% B; 2 min linear gradient to 65% A+35% B; 8 min linear gradient to 50% A+50% B; 10 min 50% A+50% B; 10 min linear gradient to 20% A+80% B; 5 min 20% A+80% B; 15 min linear gradient to 98% A+2% B; 5 min 98% A+2% B.

Data set [2] is described as follows: Conversion in human serum (10%). The format is in vitro ADME. The note with it: Human serum 10% in PBS, 37° C. The method, then: (§4) A variety of test compounds have been evaluated for their substrate activity against purified CD26, human serum (HS), and bovine serum (BS) in Eppendorf tubes. The 400 μL reaction mixture contained 50 μM of test compound in PBS (containing 0.1% DMSO). […] At different time points, 100 μL was withdrawn from the reaction mixture, added to 200 μL methanol, and put on ice for ˜10 min. Then, the mixture was centrifuged at 13,000 rpm for 5 min at 4° C. and 250 μL of supernatant was analyzed by HPLC on a reverse phase RP-8 column, using following gradients: […]
as §2, §3

The nature of data set [3]: Conversion in bovine serum (10%). The format is in vitro ADME. The note with it: Bovine serum 10% in PBS, 37° C. The method, then:
as §4, §2, §3

Setting [4] is: Human alphaherpesvirus 3, HEL, 120 h, Table 3b, plaque formation.
Where [5] appears, read: Human alphaherpesvirus 3, HEL, 120 h, read-out: EC50 VZV TK+ OKA, Table 3b, plaque formation, 5 days.
The mark [6] stands for this setting: Human alphaherpesvirus 3, HEL, 120 h, read-out: EC50 VZV TK− 07/1, Table 3b, plaque formation, 5 days.

purified CD26, sequence (P27487 whole entry, species assumed): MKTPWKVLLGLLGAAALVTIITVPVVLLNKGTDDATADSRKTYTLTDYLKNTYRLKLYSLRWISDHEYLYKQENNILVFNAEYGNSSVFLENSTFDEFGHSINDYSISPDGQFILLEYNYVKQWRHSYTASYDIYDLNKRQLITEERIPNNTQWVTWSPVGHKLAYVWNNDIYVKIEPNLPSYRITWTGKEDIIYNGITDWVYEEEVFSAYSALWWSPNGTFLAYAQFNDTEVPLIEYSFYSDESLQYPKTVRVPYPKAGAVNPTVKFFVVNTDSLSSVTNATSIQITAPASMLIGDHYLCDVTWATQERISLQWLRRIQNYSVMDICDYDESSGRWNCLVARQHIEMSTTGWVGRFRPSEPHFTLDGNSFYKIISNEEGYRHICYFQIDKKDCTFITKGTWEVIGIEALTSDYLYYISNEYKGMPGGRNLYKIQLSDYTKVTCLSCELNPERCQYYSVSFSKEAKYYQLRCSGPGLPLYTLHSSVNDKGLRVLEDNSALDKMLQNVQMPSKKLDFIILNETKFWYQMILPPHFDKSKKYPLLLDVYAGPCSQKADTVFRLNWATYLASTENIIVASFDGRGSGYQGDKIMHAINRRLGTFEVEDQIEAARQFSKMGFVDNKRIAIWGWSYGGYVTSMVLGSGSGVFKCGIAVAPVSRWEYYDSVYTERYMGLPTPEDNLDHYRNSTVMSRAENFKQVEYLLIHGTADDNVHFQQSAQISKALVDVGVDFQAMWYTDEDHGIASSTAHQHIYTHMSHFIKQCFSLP

As to `CCCCCc1ccc(-c2cc3cn([C@H]4CC(OC(=O)C(N)C(C)C)[C@@H](CO)O4)c(=O)nc3o2)cc1` (stereo partly drawn) [Compound 3, 3-[2′-Deoxy-3′-O-valyl-β-D-ribofuranosyl]-6-(p-pentylphenyl)-2,3-dihydrofuro[2,3-d]pyrimidin-2-one, reference compound], in the data set on VZV, the “antiviral activity in VZV-infected HEL cell cultures (in words)” value is listed as “active”. The EC50 is 4 nM with VZV TK+ YS (setting [4]), 7 nM in the data set with VZV TK+ OKA (setting [5]) and > 5000 nM with VZV TK− 07/1 (setting [6]). Also, in the data set with VZV TK− 07/1, the “antiviral activity against VZV/TK− (in words)” value is “lose antiviral activity”. Also, the “cytotoxic or cytostatic (in words)” value with HEL cells is “Neither of them is cytotoxic or cytostatic”. The MCC in the data set with HEL cells (human) was 20 µM. In addition, the CC50 in the data set “in vitro” was > 5 µM.

For the compound `CCCCCc1ccc(-c2cc3cn([C@H]4CC(O)[C@@H](COC(=O)C(N)C(C)C)O4)c(=O)nc3o2)cc1` (stereo partly shown) [Compound 5, reference compound], in the data set with VZV, the “antiviral activity in VZV-infected HEL cell cultures (in words)” value is “active”. For the same compound, the EC50 in the data set on VZV TK+ YS (Human alphaherpesvirus 3, HEL, 120 h, Table 3, plaque formation) is 30 nM; in the data set on VZV TK+ OKA (Human alphaherpesvirus 3, HEL, 120 h, read-out: EC50 VZV TK+ OKA, Table 3, plaque formation, 5 days) it was 14 nM; in the data set on VZV TK− 07/1 (Human alphaherpesvirus 3, HEL, 120 h, read-out: EC50 VZV TK− 07/1, Table 3, plaque formation, 5 days), > 1000 nM. The solubility in “Water-solubility by HPLC” (thermodynamic from solid, overnight, means of three determinations, read-out: Solubility in water) was determined as 211 ± 44 µg/mL (≈ 424 µM). Moreover, in the data set with VZV TK− 07/1, the “antiviral activity against VZV/TK− (in words)” value is listed as “lose antiviral activity”. Moreover, in the data set on HEL cells, the “cytotoxic or cytostatic (in words)” value is “Neither of them is cytotoxic or cytostatic”. Moreover, the MCC in the data set on HEL cells (human) was >1 µM. Moreover, the CC50 in “in vitro” was > 0.5 µM.

With `CCCCCc1ccc(-c2cc3cn([C@H]4C[C@H](O)[C@@H](COC(=O)[C@@H](NC(=O)[C@@H]5CCCN5C(=O)[C@@H](N)C(C)C)C(C)C)O4)c(=O)nc3o2)cc1` [Compound 7], the “antiviral activity in VZV-infected HEL cell cultures (in words)” value with VZV was “found to be active”. Moreover, the EC50 was 10 nM in the data set with VZV TK+ YS (Table 3, plaque formation); 12 nM in the data set on VZV TK+ OKA (Table 3, plaque formation, 5 days, read-out: EC50 VZV TK+ OKA); > 1000 nM in the data set on VZV TK− 07/1 (Table 3, plaque formation, 5 days, read-out: EC50 VZV TK− 07/1). The “Compound 1 in plasma (area under the curve (HPLC))” value worked out at 32 in data set [1] (15 min after oral gavage); 52 in [1] (30 min after oral gavage); 87 in [1] (45 min after oral gavage); 44 in data set [1] (60 min after oral gavage); 14 in [1] (120 min after oral gavage); 6.2 in data set [1] (180 min after oral gavage). In addition, in data set [1] (oral gavage, versus dosing Compound 1), the “increase of the oral bioavailability of Compound 1 (as estimated by the AUC values)” value is “approximately 12 fold”. The “Formation of hydrolysis products (%): Compound 1” value is recorded as 0% at purified CD26 (0 hr); 49.4% on purified CD26 (2 hr); 62.9% on purified CD26 (6 hr); 75.5% on purified CD26 (20 hr); 0% in data set [2] (0 hr); 57.6% in data set [2] (1 hr). Moreover, the “Formation of hydrolysis products (%): Compound 1” value in data set [2] (4 hr) amounted to 73.4%; in [2] (20 hr), 88.5%; in data set [3] (0 hr) it was 0%; in data set [3] (1 hr), 20.3%; in data set [3] (4 hr), 44.8%; in [3] (20 hr), 74.4%. The “Formation of hydrolysis products (%): Compound 5” value turned out to be 0% at purified CD26 (0 hr); 50.6% on purified CD26 (2 hr); 37.1% on purified CD26 (6 hr); 24.5% at purified CD26 (20 hr); 0% in data set [2] (0 hr); 11.4% in data set [2] (1 hr). Also, the “Formation of hydrolysis products (%): Compound 5” value worked out at 21.5% in [2] (4 hr); 9.7% in data set [2] (20 hr); 0% in data set [3] (0 hr); 19.9% in [3] (1 hr); 34.7% in data set [3] (4 hr); 21% in data set [3] (20 hr). For the same compound, the “Formation of hydrolysis products (%): Compound 7” value on purified CD26 (0 hr) is reported as 100%; at purified CD26 (2 hr) it was 0%; at purified CD26 (6 hr) it was 0%; at purified CD26 (20 hr) it was 0%; in [2] (0 hr) it was 100%; in data set [2] (1 hr), 31%. Besides, the “Formation of hydrolysis products (%): Compound 7” value in [2] (4 hr) turned out to be 5.0%; in data set [2] (20 hr) it was 1.8%; in [3] (0 hr) it was 100%; in data set [3] (1 hr), 59.8%; in data set [3] (4 hr), 20.4%; in data set [3] (20 hr), 3.3%. For the same compound, in “Water-solubility by HPLC”, the “water-solubility” value was found to be 1.27 mg/mL. Also, in “Water-solubility by HPLC”, the “water-solubility relative to Compound 1” value is reported as “more than 57 fold”. Further, in “Water-solubility by HPLC” (overnight, means of three determinations), the Solubility in water was 1.27 ± 0.05 mg/mL (≈ 1830 µM). Moreover, the “antiviral activity against VZV/TK− (in words)” value with VZV TK− 07/1 is given as “lose antiviral activity”. Besides, the CC50 with HEL cells is > 500 nM. Besides, the MCC with HEL cells is >1 µM. In addition, the “cytotoxic or cytostatic (in words)” value with HEL cells is recorded as “Neither of them is cytotoxic or cytostatic”.

As for `CCCCCc1ccc(-c2cc3cn(C4CC(OC(=O)C(NC(=O)C5CCCN5C(=O)C(N)C(C)C)C(C)C)C(CO)O4)c(=O)nc3o2)cc1` [Compound 9, 3-[2′-Deoxy-3′-O-(valyl-prolyl-valyl)-β-D-ribofuranosyl]-6-(p-pentylphenyl)-2,3-dihydrofuro[2,3-d]pyrimidin-2-one], in the data set on VZV, the “antiviral activity in VZV-infected HEL cell cultures (in words)” value is on record as “found to be active”. For the same compound, the EC50 in the data set on VZV TK+ YS (setting [4]) is 16 nM; in the data set with VZV TK+ OKA (setting [5]), 17 nM; with VZV TK− 07/1 (setting [6]) it was > 5000 nM. The “antiviral activity against VZV/TK− (in words)” value in the data set with VZV TK− 07/1 is “lose antiviral activity”. In addition, the “cytotoxic or cytostatic (in words)” value with HEL cells is listed as “Neither of them is cytotoxic or cytostatic”. In addition, the MCC in the data set on HEL cells (human) was 20 µM. The CC50 in “in vitro” was > 5 µM.
